In test [1] the test system is panel of 456 protein kinases. The test is described as follows: Selectivity profiling at DiscoveRx (KinomeScan). Format: binding. The following applies: 1 µM compound; for one or more of the protein kinases listed. Here is the method: The selectivity profiling of compounds 10c, 10d, 10n and 10o were performed at DiscoveRx in a library of 456 kinases at a concentration of 1 µM. Briefly, kinases were mostly expressed as fusion proteins to […] and grown in 24-well blocks in E. Coli (derived from the BL21 strain). The rest of the kinases were expressed in HEK-293 cells and tagged with DNA for qPCR detection. Affinity resins were generated by mixing streptavidin-coated magnetic beads with biotinylated small molecule ligands for 30 minutes at 25 °C, followed by biotin and blocking buffer addition (SeaBlock (Pierce), 1 % BSA, 0.05 % Tween 20, 1 mM DTT). Inhibitors were kept at 40x stocks in 100% DMSO and added to the corresponding 384-well plates (40 µL). […] The kinase concentration present in the eluate was determined by qPCR. For further details, see Fabian, et. al., Nat. Biotechnol., 2005, 23 (3), 329-33.

The target in a further test is T1, EphA3 (Homo sapiens, UniProt P29320).
T1 construct: A clone of EphA3 kinase domain (residues: 606-947); made in house; host or cells: Escherichia coli BL21 (DE3)
T1 sequence (P29320 606-947): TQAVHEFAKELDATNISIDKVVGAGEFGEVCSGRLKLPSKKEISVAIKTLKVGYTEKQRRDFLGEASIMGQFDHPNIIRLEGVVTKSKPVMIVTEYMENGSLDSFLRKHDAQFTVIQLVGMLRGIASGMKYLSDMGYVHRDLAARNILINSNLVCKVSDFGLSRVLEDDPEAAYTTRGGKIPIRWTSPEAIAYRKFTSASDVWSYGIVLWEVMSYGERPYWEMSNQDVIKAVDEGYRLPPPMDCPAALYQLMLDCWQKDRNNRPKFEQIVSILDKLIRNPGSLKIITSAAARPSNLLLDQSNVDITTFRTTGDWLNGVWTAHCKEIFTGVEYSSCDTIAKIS
The test is described as follows: Differential Scanning Fluorimetry. It counts as binding. The note with it: 2 µM EphA3, compound 20µM; read-out: Delta Tm. Here is the method:
Cell pellets were resuspended in buffer A (50mM Tris, pH 8.0 and 100mM NaCl, supplemented with protease inhibitors) and lysed by sonication. After centrifugation at 15,000 rpm for 1 h, the soluble fraction of EphA3 was purified using […] (GE healthcare), followed by gel filtration chromatography (Superdex75; GE healthcare). The appropriate fractions were combined and concentrated to ~10 mg/mL using Amicon filter devices (10kDa as cutoff) in a storage solution (100mM sodium chloride and 10mM Tris-HCl pH 8.0, 5% glycerol). The resulting solution was aliquoted and stored at -80°C for further usage.
A final volume of 40µL was added per well in a 96 well plate and incubated at room temperature for 1 h. The plates were centrifuged for 3 min at 450 rcf. The temperature gradient was performed in the range of 25°C-75°C (50 acquisitions per degree at a ramp rate of 4.4°C/s) using a LightCycler 480 Real-Time PCR System. […] All measurements were performed in triplicate.

In the next test the test system is HT-29. The test is described as follows: Cell culture and GI50 determination (resazurin), HT-29. It counts as cell-based. The following applies: Homo sapiens; HT-29, resazurin. As for the experimental part: (§1) The old media was removed, the cells were washed with PBS (phosphate-buffered saline) and fresh media was added. […] Control cells were treated with the same DMSO concentrations. […] After 3 hours, the fluorescence was quantified using a fluorescence microplate reader (Biotek, FLx800™) at the respective excitation and emission wavelength of 560 and 590 nm. Resazurin becomes fluorescent under mitochondrial reduction and its emission directly correlates with the metabolic stability of the cells. […] All measurements were performed at least in triplicate (see table 1).

Test [2] relates to KM12 (colon cancer) cells. The test is described as follows: Cell culture and GI50 determination (resazurin), KM12. The following applies: Homo sapiens. It counts as cell-based. Here is the method:
(§2) Krek (Institute of Cell Biology, ETH Zurich) were cultured in Dulbelcco's modified Eagle's medium (DMEM) supplemented with 10% (v/v) fetal bovine serum. K562 leukemia cells obtained from Dr. Silvio Hemmi (Institute of Molecular Life Sciences, UZH) were cultured using RPMI medium supplemented with 5% (v/v) fetal bovine serum. All the media was additionally supplemented with 100 units/mL of penicillin, 100µg/mL of streptomycin, 4.5 g/L glucose, 0.11g/L sodium pyrubate and 2mM glutamine and the cells were grown at 37°C in 5% CO2 atmosphere with 80% relative humidity.
as §1

Test [3] concerns MDA-MB-231 (breast cancer) cells. The test is described as follows: Cell culture and GI50 determination (resazurin), MDA-MB-231. It counts as cell-based. The following applies: Homo sapiens, MDA-MB-231, 72 h. Here is the method:
as §2, §1

For the next test, the target named is T2, full-length human EphB4 (Homo sapiens, UniProt P54760).
T2 construct: stably transfected to overexpress full-length human EphB4; host or cells: Mouse embryonic fibroblast cells
T2 sequence (P54760 16-987): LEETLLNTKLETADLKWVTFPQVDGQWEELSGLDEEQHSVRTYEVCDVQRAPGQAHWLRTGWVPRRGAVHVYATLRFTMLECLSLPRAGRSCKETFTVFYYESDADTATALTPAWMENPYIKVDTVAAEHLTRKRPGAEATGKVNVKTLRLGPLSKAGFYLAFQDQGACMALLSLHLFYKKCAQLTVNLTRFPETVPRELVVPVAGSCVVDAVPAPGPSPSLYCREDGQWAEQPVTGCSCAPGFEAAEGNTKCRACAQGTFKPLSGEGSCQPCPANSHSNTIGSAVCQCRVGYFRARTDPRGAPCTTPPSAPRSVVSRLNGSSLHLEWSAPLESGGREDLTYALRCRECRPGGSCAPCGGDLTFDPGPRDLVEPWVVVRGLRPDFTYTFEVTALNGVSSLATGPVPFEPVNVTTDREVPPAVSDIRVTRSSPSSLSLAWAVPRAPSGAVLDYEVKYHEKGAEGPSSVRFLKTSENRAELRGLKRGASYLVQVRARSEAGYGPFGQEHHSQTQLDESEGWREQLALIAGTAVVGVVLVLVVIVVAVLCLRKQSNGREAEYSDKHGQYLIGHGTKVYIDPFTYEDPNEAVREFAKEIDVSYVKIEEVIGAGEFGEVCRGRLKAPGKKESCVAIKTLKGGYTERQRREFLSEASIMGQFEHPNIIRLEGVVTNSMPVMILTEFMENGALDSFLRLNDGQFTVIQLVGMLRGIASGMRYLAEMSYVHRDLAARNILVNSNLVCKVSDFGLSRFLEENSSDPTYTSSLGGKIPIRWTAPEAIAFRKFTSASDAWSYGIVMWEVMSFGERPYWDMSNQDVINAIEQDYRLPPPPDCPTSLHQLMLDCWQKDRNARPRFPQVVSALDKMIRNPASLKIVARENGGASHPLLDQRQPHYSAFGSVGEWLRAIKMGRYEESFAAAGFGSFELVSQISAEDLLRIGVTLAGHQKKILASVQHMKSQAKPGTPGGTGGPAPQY
The test is described as follows: Cellular phosphorylation assay (sandwich ELISA, ProQinase). The note with it: mouse embryonic fibroblast cells overexpressing EphB4, stimulated with murine ephrinB2-Fc, read-out: cell IC50. Format: cell-based. Here is the method: Cellular phosphorylation assays: The cellular phosphorylation experiments were performed at ProQinase GmbH. Mouse embryonic fibroblast cells, stably transfected to overexpress full-length human EphB4, were plated at 4×10^4 cells/well in DMEM supplemented with 10% FCS in 48-well culture dishes. Medium was replaced by DMEM without FCS before test compounds prediluted in 100% DMSO were added (final DMSO concentration of 1 %). After incubation for 90 min at 37 °C, cells were stimulated for 2 h at 4 °C using murine ephrinB2-Fc at a final concentration of 2 µg/ml. Quantification of EphB4 phosphorylation was assessed in a 96-well plate via sandwich ELISA using a myc capture antibody and an antiphosphotyrosine detection antibody. Table 4: Cell IC50 (µmol/l) in cells overexpressing EphB4

Test [4] has as its system A498 (kidney cancer) cells. The test is described as follows: Cell culture and GI50 determination (resazurin), A-498. Format: cell-based. The following applies: Homo sapiens, A-498, 48h incubation. As for the experimental part: as §2, §1
Test [5] concerns HOP-92 (lung cancer) cells. The test is described as follows: Cell culture and GI50 determination (resazurin), HOP-92. It counts as cell-based. The note with it: Homo sapiens; HOP-92, resazurin. As for the experimental part:
as §2, §1

In the next test the test system is K-562 leukemia cells. The test is described as follows: Cell culture and GI50 determination (resazurin), K-562. It counts as cell-based. The following applies: Homo sapiens, K562, K-562, 48 hour incubation. As for the experimental part: as §2
After 24 hours, 12.5 µL of a 10 fold concentrated drug or DMSO solution in RMPI media was added in every well. After 48 hour incubation, cell viability was studied by measuring the ability of the cells to process resazurin.

These results are taken from patent EP2924039A1, “2-Amino-1-phenyl-pyrrolo[3,2-b]quinoxaline-3-carboxamide derivates” (Universität Zürich, priority 2014, dated 2015).

SMILES strings stand for the structures. pIC50: −log10 of the molar value.

As to `Cc1ccc(-n2nc(C(C)(C)C)cc2NC(=O)Nc2ccc(-n3c(N)c(C(N)=O)c4nc5ccccc5nc43)cc2)cc1` [Compound 10o], the “control binding to the kinase in presence of the compound relative to control binding in absence of the compound” value in test [1] is given as “less than 10% of control”. On EphA3, the ΔTm at 20 µM stood at 17.3 °C. Also, the GI50 in the test with HT-29 turned out to be 780 nM; in test [2], 210 nM; in test [3] it was 980 nM; in test [4], 1000 nM; in test [5] it was 1480 nM; with K-562 leukemia cells, 20 nM. Besides, the pIC50 on full-length human EphB4 is 6.43.
